Consider one molecule from paper PMC10322960 (European Journal of Drug Metabolism and Pharmacokinetics, 2023).

A short description of this data set: Phase 1 clinical drug–drug interaction study, safety assessment. Type of data set: in vivo, human. The following applies: Cohort 1, 12 subjects; mild in severity.

For the molecule `CCC(C)n1ncn(-c2ccc(N3CCN(c4ccc(OCC5COC(Cn6cncn6)(c6ccc(Cl)cc6Cl)O5)cc4)CC3)cc2)c1=O` (centres unmarked) [itraconazole, reference compound], the “number of treatment-emergent AEs considered related to the drug” value came out at 5 and the “subjects with treatment-emergent AEs considered related to the drug” value worked out at 16.7%.
